The source of these data is PubChem BioAssay AID1919009 (Molecular Pharmacology Branch, DTP, NCI, 2023).

Structures are written as SMILES. pIC50: −log10 of the molar value. Where “and” joins values, the source holds several entries; their conditions need not be identical. Equal entries are not always repeated.

In the experiment the test system is K24384-001-R-PDC complex spheroid growth. The experiment is described as follows: Anticancer human tumor K24384-001-R-PDC patient-derived pancreatic adenocarcinoma cell line growth inhibition [AhR]. The settings on record: for viability, T/C: stronger effect = lower value. The gist of the method: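 Complex tumor spheroids co-cultured with HUVEC and human MSC stroma; AhR antagonists tested in combination with standard-of-care and investigational agents. Top concentration at or near clinical Cmax (else 10 microM), half-log dilutions; growth expressed as percent test/control.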

Setting [1] is: curve of first compound, second compound 0.1 µM.
Where [2] appears, read: curve of first compound, second compound 0.316 µM.
The mark [3] stands for this setting: curve of first compound, second compound 1 µM.
[4] abbreviates: curve of first compound, second compound 3.16 µM.
Where [5] appears, read: curve of first compound, second compound 10 µM.
[6] abbreviates: second compound 0.1 µM, first compound 0.0316 µM.
[7] abbreviates: second compound 0.1 µM, first compound 0.1 µM.
Where [8] appears, read: second compound 0.1 µM, first compound 0.316 µM.
The mark [9] stands for this setting: second compound 0.1 µM, first compound 1 µM.
Where [10] appears, read: second compound 0.1 µM, first compound 3.16 µM.
Where [11] appears, read: second compound 0.1 µM, first compound 10 µM.
Where [12] appears, read: second compound 0.316 µM, first compound 0.0316 µM.
Where [13] appears, read: second compound 0.316 µM, first compound 0.1 µM.
Setting [14] is: second compound 0.316 µM, first compound 0.316 µM.
The mark [15] stands for this setting: second compound 0.316 µM, first compound 1 µM.
[16] abbreviates: second compound 0.316 µM, first compound 3.16 µM.
Setting [17] is: second compound 0.316 µM, first compound 10 µM.
Where [18] appears, read: second compound 1 µM, first compound 0.0316 µM.
Where [19] appears, read: second compound 1 µM, first compound 0.1 µM.
Setting [20] is: second compound 1 µM, first compound 0.316 µM.
Setting [21] is: second compound 1 µM, first compound 1 µM.
Setting [22] is: second compound 1 µM, first compound 3.16 µM.
Setting [23] is: second compound 1 µM, first compound 10 µM.
[24] abbreviates: second compound 3.16 µM, first compound 0.0316 µM.
Where [25] appears, read: second compound 3.16 µM, first compound 0.1 µM.
The mark [26] stands for this setting: second compound 3.16 µM, first compound 0.316 µM.
The mark [27] stands for this setting: second compound 3.16 µM, first compound 1 µM.
Setting [28] is: second compound 3.16 µM, first compound 3.16 µM.
Where [29] appears, read: second compound 3.16 µM, first compound 10 µM.
Where [30] appears, read: second compound 10 µM, first compound 0.0316 µM.
[31] abbreviates: second compound 10 µM, first compound 0.1 µM.
[32] abbreviates: second compound 10 µM, first compound 0.316 µM.
Setting [33] is: second compound 10 µM, first compound 1 µM.
The mark [34] stands for this setting: second compound 10 µM, first compound 3.16 µM.
The mark [35] stands for this setting: second compound 10 µM, first compound 10 µM.

What is called viability, T/C is the ratio of treated to control. The pIC50 is the IC50 on a negative log10 scale, so that one unit is a factor of ten. For orientation: IC50 means the concentration that inhibits the measured activity by half.
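Throughout, for viability, T/C: percent of DMSO vehicle-treated spheroid viability set as 100%.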

For `CCc1c2c(nc3ccc(O)cc13)-c1cc3c(c(=O)n1C2)COC(=O)[C@]3(O)CC`, the viability, T/C by setting is: (compound 0.000949 µM) 70.9% and 79.9% and 78.5%; (compound 0.003 µM) 67% and 71.9% and 67.1%; (compound 0.00949 µM) 58.6% and 52.8% and 65%; (compound 0.03 µM) 43.8% and 54.9% and 51.5%; (compound 0.0949 µM) 38.5% and 51% and 50.3%; (compound 0.3 µM) 27.5% and 39.2% and 36.9%. Moreover, the negative logarithm of the IC50 (pIC50) (curve of compound) is 7.68 and 7.32 and 7.24.

For the compound `Cc1cncc(-c2nc(NCCc3c[nH]c4ccccc34)c3ncn(C(C)C)c3n2)c1`, for the setting “compound 10 µM”, the viability, T/C was 10.4% [middle of 20 runs]. Also, the IC50 (compound alone, run of 06/06/2022) is 5.54 µM [middle of 23 runs].

As for `NS(=O)(=O)OCC1CC(n2ccc3c(NC4CCc5ccccc54)ncnc32)CC1O` (centres undefined) + Cc1ccccc1N=Nc1ccc(NC(=O)c2ccnn2C)c(C)c1, the negative logarithm of the IC50 (pIC50) is 6.03 under setting [1]; 6.03 under setting [2]; 6.14 under setting [3]; 6.36 under setting [4]; 6.37 under setting [5]. In addition, the viability, T/C is 104% under setting [6]; 117% under setting [7]; 96.4% under setting [8]; 47.4% under setting [9]; 23.7% under setting [10]; 22.1% under setting [11]. Also, the viability, T/C is 104% under setting [12]; 115% under setting [13]; 98.8% under setting [14]; 46.1% under setting [15]; 27.3% under setting [16]; 18.3% under setting [17]. In addition, the viability, T/C under setting [18] was 117%; the viability, T/C under setting [19] is 127%; the viability, T/C under setting [20] is 83.5%; the viability, T/C under setting [21] is 39.5%; the viability, T/C under setting [22] was 24.2%; the viability, T/C under setting [23] was 22.6%. In addition, the viability, T/C is 103% under setting [24]; 108% under setting [25]; 58.3% under setting [26]; 32.7% under setting [27]; 24.6% under setting [28]; 20.9% under setting [29]. In addition, the viability, T/C by setting is: under setting [30], 96.2%; under setting [31], 104%; under setting [32], 59%; under setting [33], 30.1%; under setting [34], 23.4%; under setting [35], 20.3%.

Turning to `CCN(c1cc(-c2ccc(CN3CCOCC3)cc2)cc(C(=O)NCc2c(C)cc(C)[nH]c2=O)c1C)C1CCOCC1` + Cc1cncc(-c2nc(NCCc3c[nH]c4ccccc34)c3ncn(C(C)C)c3n2)c1, the pIC50 by setting is: under setting [1], below 5.52; under setting [2], below 5.52; under setting [3], below 5.52; under setting [4], below 5.52; under setting [5], above 8.02. The viability, T/C by setting is: (second compound 0.1 µM, first compound 0.00949 µM) 118%; (second compound 0.1 µM, first compound 0.03 µM) 126%; (second compound 0.1 µM, first compound 0.0949 µM) 129%; (second compound 0.1 µM, first compound 0.3 µM) 115%; (second compound 0.1 µM, first compound 0.949 µM) 130%; (second compound 0.1 µM, first compound 3 µM) 133%. Further, the viability, T/C is 138% (second compound 0.316 µM, first compound 0.00949 µM); 139% (second compound 0.316 µM, first compound 0.03 µM); 150% (second compound 0.316 µM, first compound 0.0949 µM); 132% (second compound 0.316 µM, first compound 0.3 µM); 120% (second compound 0.316 µM, first compound 0.949 µM); 108% (second compound 0.316 µM, first compound 3 µM). Moreover, the viability, T/C is, setting by setting: (second compound 1 µM, first compound 0.00949 µM) 126%; (second compound 1 µM, first compound 0.03 µM) 150%; (second compound 1 µM, first compound 0.0949 µM) 144%; (second compound 1 µM, first compound 0.3 µM) 133%; (second compound 1 µM, first compound 0.949 µM) 128%; (second compound 1 µM, first compound 3 µM) 120%. The viability, T/C reads like this: (second compound 3.16 µM, first compound 0.00949 µM) 116%; (second compound 3.16 µM, first compound 0.03 µM) 101%; (second compound 3.16 µM, first compound 0.0949 µM) 120%; (second compound 3.16 µM, first compound 0.3 µM) 113%; (second compound 3.16 µM, first compound 0.949 µM) 101%; (second compound 3.16 µM, first compound 3 µM) 96.1%. Also, the viability, T/C (second compound 10 µM, first compound 0.00949 µM) was 18.7%; the viability, T/C (second compound 10 µM, first compound 0.03 µM) is 17.1%; the viability, T/C (second compound 10 µM, first compound 0.0949 µM) is 17.3%; the viability, T/C (second compound 10 µM, first compound 0.3 µM) was 11.9%; the viability, T/C (second compound 10 µM, first compound 0.949 µM) was 10.1%; the viability, T/C (second compound 10 µM, first compound 3 µM) is 8.09%.

Take `CC1COCCN1c1cc(C2(S(C)(=N)=O)CC2)nc(-c2ccnc3[nH]ccc23)n1` (centres undefined) + CC(CO)NC(=O)c1cc(-c2ccc(Cl)cc2)nn(-c2cnn(C)c2)c1=O: the negative logarithm of the IC50 (pIC50) runs as follows: under setting [1], below 5.00; under setting [2], 5.51; under setting [3], 5.02; under setting [4], 5.44; under setting [5], below 5.00. For the same compound, the viability, T/C under setting [6] was 113%; the viability, T/C under setting [7] was 128%; the viability, T/C under setting [8] is 133%; the viability, T/C under setting [9] is 77.7%; the viability, T/C under setting [10] was 55.8%; the viability, T/C under setting [11] is 42.8%. In addition, the viability, T/C is, setting by setting: under setting [12], 136%; under setting [13], 133%; under setting [14], 136%; under setting [15], 84.2%; under setting [16], 52.7%; under setting [17], 46.2%. Also, the viability, T/C is, setting by setting: under setting [18], 142%; under setting [19], 139%; under setting [20], 136%; under setting [21], 103%; under setting [22], 66.5%; under setting [23], 48.6%. In addition, the viability, T/C reads like this: under setting [24], 125%; under setting [25], 96.8%; under setting [26], 132%; under setting [27], 96.4%; under setting [28], 53.1%; under setting [29], 40.6%. Besides, the viability, T/C under setting [30] is 122%; the viability, T/C under setting [31] is 125%; the viability, T/C under setting [32] was 130%; the viability, T/C under setting [33] was 107%; the viability, T/C under setting [34] was 64%; the viability, T/C under setting [35] was 53.9%.
